From patent publication US20250213555A1, “SUBSTITUTED TETRAHYDROFURAN ANALOGS AS MODULATORS OF SODIUM CHANNELS” (VERTEX PHARMACEUTICALS INCORPORATED, priority 2021, published 2025)

Target: human Nav 1.8 (Homo sapiens, UniProt Q9Y5Y9)
Experiment: E-VIPR assay detecting and measuring Nav inhibition properties
Type: cell-based
Conditions: HEK cells expressing a truncated form of human Nav 1.8; compound numbers without "*" (not marked as run in the presence of human serum); read-out: measured IC50 value in the E-VIPR Assay
From the text: E-VIPR Assay Detecting and Measuring Nav Inhibition Properties
Sodium ion channels are voltage-dependent proteins that can be activated by inducing membrane voltage changes by applying electric fields. The electrical stimulation instrument and methods of use, referred to as E-VIPR, are described in International Publication No. WO 2002/008748 A3 and C.-J. Huang et al. Characterization of voltage-gated sodium channel blockers by electrical stimulation and fluorescence detection of membrane potential, 24 Nature Biotech. 439-46 (2006), both of which are incorporated by reference in their entirety. The instrument comprises a microtiter plate handler, an optical system for exciting the coumarin dye while simultaneously recording the coumarin and oxonol emissions, a waveform generator, a current- or voltage-controlled amplifier, and parallel electrode pairs that are inserted into assay plate wells. Under integrated computer control, this instrument passes user-programmed electrical stimulus protocols to cells within the wells of the microtiter plate.
16-20 hours prior to running the assay on E-VIPR, HEK cells expressing a truncated form of human Nav 1.8 with full channel activity were seeded into microtiter 384-well plates, pre-coated with matrigel, at a density of 25,000 cells per well. 2.5-5% KIR2.1 Bacmam virus was added to the final cell suspension before seeding into cell plates. HEK cells were grown in Dulbecco's Modified Eagle's Medium (DMEM) supplemented with 10% FBS (Fetal Bovine Serum, qualified; Sigma #F4135), 1% NEAA (Non-Essential Amino Acids, Gibco #11140), 1% HEPES (Gibco #15630), 1% Pen-Strep (Penicillin-Streptomycin; Gibco #15140) and 5 μg/ml Blasticidin (Gibco #R^210-01). Cells were expanded in vented cap cell culture flasks, with 90-95% humidity and 5% CO2.
100 mg/mL Pluronic F-127 (Sigma #P2443), in dry DMSO
Compound Plates: Corning 384-well Polypropylene Round Bottom #3656
Cell Plates: 384-well tissue culture treated plates (Greiner #781091-2B)
2.5-5% KIR 2.1 Bacmam virus (produced in-house), prepared as described in Section 3.3 of J. A. Fornwald et al., Gene Expression in Mammalian Cells Using BacMam, a Modified Baculovirus System, 1350 Methods in Molecular Biology 95-116 (2016), the entire contents of which are incorporated by reference. The concentration used can be dependent on viral titer of each batch.
5 mM DiSBAC6(3), a voltage sensitive oxonol acceptor (CAS number 169211-44-3; 5-[3-(1,3-dihexylhexahydro-4,6-dioxo-2-thioxo-5-pyrimidinyl)-2-propen-1-ylidene]-1,3-dihexyldihydro-2-thioxo-4,6 (1H,5H)-pyrimidinedione), in dry DMSO. The preparation of DiSBAC6(3) is analogous to that of DiSBAC4(3) as described in Voltage Sensing by Fluorescence Resonance Energy Transfer in Single Cells, Gonzalez, J. E. and Tsien, R. Y. (1995) Biophys. J. 69, 1272-1280.
5 mM CC2-DMPE, a commercially available membrane-bound coumarin phospholipid FRET donor (ThermoFisher Scientific catalog number K1017, CAS number 393782-57-5; tetradecanoic acid, 1,1′-[(1R)-1-[8-(6-chloro-7-hydroxy-2-oxo-2H-1-benzopyran-3-yl)-3-hydroxy-3-oxido-8-oxo-2,4-dioxa-7-aza-3-phosphaoct-1-yl]-1,2-ethanediyl] ester) was prepared in dry DMSO. See also, Improved indicators of cell membrane potential that use fluorescence resonance energy transfer, Gonzalez, J. E. and Tsien, R. Y. (1997) Chem. Biol. 4, 269-277.
Voltage Assay Background Suppression Compound (VABSC-1) is prepared in H2O (89-363 mM, range used to maintain solubility)
Human Serum (HS, Millipore #S1P1-01KL, or Sigma SLBR5469V and SLBR5470V as a 50%/50% mixture, for 25% assay final concentration)
• Sodium Chloride 160 mM (9.35 g/L), Potassium Chloride, 4.5 mM (0.335 g/L), Glucose 10 mM (1.8 g/L), Magnesium Chloride (Anhydrous) 1 mM (0.095 g/L), Calcium Chloride 2 mM (0.222 g/L), HEPES 10 mM (2.38 g/L) in water. […]

Chain of human Nav 1.8 (Q9Y5Y9 126-399 limits assumed): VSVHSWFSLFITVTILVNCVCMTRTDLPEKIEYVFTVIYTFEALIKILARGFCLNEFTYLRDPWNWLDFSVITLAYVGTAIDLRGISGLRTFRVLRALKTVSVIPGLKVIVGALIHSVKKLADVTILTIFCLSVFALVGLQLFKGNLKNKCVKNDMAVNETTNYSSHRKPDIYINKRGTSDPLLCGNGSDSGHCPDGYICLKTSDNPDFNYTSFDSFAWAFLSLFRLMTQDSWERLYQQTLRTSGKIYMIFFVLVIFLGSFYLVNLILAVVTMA
Chain of human Nav 1.8 (Q9Y5Y9 660-890 limits assumed): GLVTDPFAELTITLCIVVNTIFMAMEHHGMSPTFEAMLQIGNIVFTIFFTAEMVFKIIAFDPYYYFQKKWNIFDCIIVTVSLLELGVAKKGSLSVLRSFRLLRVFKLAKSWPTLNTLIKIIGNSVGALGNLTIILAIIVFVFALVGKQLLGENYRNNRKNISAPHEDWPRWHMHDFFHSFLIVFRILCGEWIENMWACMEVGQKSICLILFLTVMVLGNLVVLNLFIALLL
Chain of human Nav 1.8 (Q9Y5Y9 1148-1722 limits assumed): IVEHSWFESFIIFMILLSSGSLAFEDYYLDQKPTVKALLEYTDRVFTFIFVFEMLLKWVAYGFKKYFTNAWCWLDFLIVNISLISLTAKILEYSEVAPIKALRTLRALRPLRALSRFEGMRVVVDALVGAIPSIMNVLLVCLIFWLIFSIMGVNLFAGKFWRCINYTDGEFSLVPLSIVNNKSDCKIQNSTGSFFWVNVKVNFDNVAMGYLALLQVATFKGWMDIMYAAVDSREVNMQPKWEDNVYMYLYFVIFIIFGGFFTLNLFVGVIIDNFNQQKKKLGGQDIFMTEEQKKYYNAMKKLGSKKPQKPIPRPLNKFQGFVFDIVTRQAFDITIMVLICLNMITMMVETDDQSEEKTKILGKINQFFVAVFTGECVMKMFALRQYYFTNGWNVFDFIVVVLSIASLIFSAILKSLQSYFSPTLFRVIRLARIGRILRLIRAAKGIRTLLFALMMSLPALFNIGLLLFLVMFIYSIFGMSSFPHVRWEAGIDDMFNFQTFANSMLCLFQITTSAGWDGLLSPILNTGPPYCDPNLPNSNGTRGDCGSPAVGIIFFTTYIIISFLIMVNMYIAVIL

SMILES | IC50
C[C@H]1[C@@H](c2ccc(F)c(F)c2OC2CC3(CC(O)C3)C2)[C@H](C(=O)Nc2ccnc(C(N)=O)c2)O[C@@]1(C)C(F)(F)F (stereo partly drawn) [Compound 204, 4-((2R,3S,4S,5R)-3-(3,4-difluoro-2-((6-hydroxyspiro[3.3]heptan-2-yl)oxy)phenyl)-4,5-dimethyl-5-(trifluoromethyl)tetrahydrofuran-2-carboxamido)picolinamide] | 100 to 1000 nM
COc1c([C@H]2[C@H](C(=O)Nc3cc(C(=O)N4CCN(C)CC4)ncn3)O[C@@](C)(C(F)(F)F)[C@H]2C)ccc(F)c1F [Compound 22, (2R,3S,4S,5R)-3-(3,4-difluoro-2-methoxyphenyl)-4,5-dimethyl-N-(6-(4-methylpiperazine-1-carbonyl)pyrimidin-4-yl)-5-(trifluoromethyl)tetrahydrofuran-2-carboxamide] | 100 to 1000 nM
C[C@H]1[C@@H](c2ccc(F)c3c2CCC3(F)F)[C@H](C(=O)Nc2ccnc(C(N)=O)c2)O[C@@]1(C)C(F)(F)F (single isomer, unassigned) [Compound 149] | < 10 nM
C[C@H]1[C@@H](c2ccc(F)c(F)c2OCCN2CC3(CCO3)C2)[C@H](C(=O)Nc2ccnc(C(N)=O)c2)O[C@@]1(C)C(F)(F)F [Compound 57, 4-((2R,3S,4S,5R)-3-(2-(2-(1-oxa-6-azaspiro[3.3]heptan-6-yl)ethoxy)-3,4-difluorophenyl)-4,5-dimethyl-5-(trifluoromethyl)tetrahydrofuran-2-carboxamido)picolinamide] | < 10 nM
COc1c([C@H]2[C@H](C(=O)Nc3ccnc(C(=O)N4C[C@H]5CC[C@@H](C4)NC5)c3)O[C@@](C)(C(F)(F)F)[C@H]2C)ccc(F)c1F [Compound 244, (2R,3S,4S,5R)-N-(2-((1S,5S)-3,6-diazabicyclo[3.2.2]nonane-3-carbonyl)pyridin-4-yl)-3-(3,4-difluoro-2-methoxyphenyl)-4,5-dimethyl-5-(trifluoromethyl)tetrahydrofuran-2-carboxamide] | < 10 nM
COc1c([C@H]2[C@H](C(=O)Nc3nccc(C(=O)N4CCN(C)CC4)n3)O[C@@](C)(C(F)(F)F)[C@H]2C)ccc(F)c1F [Compound 13, (2R,3S,4S,5R)-3-(3,4-difluoro-2-methoxyphenyl)-4,5-dimethyl-N-(4-(4-methylpiperazine-1-carbonyl)pyrimidin-2-yl)-5-(trifluoromethyl)tetrahydrofuran-2-carboxamide] | 100 to 1000 nM
COCc1c([C@H]2[C@H](C(=O)Nc3ccnc(C(N)=O)c3)O[C@@](C)(C(F)(F)F)[C@H]2C)ccc(F)c1F (racemic) [Compound 145, rac-4-((2R,3S,4S,5R)-3-(3,4-difluoro-2-(methoxymethyl)phenyl)-4,5-dimethyl-5-(trifluoromethyl)tetrahydrofuran-2-carboxamido)picolinamide] | < 10 nM
C[C@@H]1CN(CCOc2c([C@H]3[C@H](C(=O)Nc4ccnc(C(N)=O)c4)O[C@@](C)(C(F)(F)F)[C@H]3C)ccc(F)c2F)CCO1 [Compound 109, 4-((2R,3S,4S,5R)-3-(3,4-difluoro-2-(2-((R)-2-methylmorpholino)ethoxy)phenyl)-4,5-dimethyl-5-(trifluoromethyl)tetrahydrofuran-2-carboxamido)picolinamide] | < 10 nM
C[C@H]1[C@@H](c2cccc(C(F)(F)F)c2O[C@H]2C[C@@H](O)C2)[C@H](C(=O)Nc2ccnc(C(N)=O)c2)O[C@@]1(C)C(F)(F)F [Compound 212, 4-((2R,3S,4S,5R)-3-(2-((1s,3R)-3-hydroxycyclobutoxy)-3-(trifluoromethyl)phenyl)-4,5-dimethyl-5-(trifluoromethyl)tetrahydrofuran-2-carboxamido) picolinamide] | < 10 nM
COc1c([C@H]2[C@H](C(=O)Nc3ccnc(C(=O)N(C)[C@@H]4CCN(C)C4)c3)O[C@@](C)(C(F)(F)F)[C@H]2C)ccc(F)c1F [Compound 269, 4-((2R,3S,4S,5R)-3-(3,4-difluoro-2-methoxyphenyl)-4,5-dimethyl-5-(trifluoromethyl)tetrahydrofuran-2-carboxamido)-N-methyl-N-((R)-1-methylpyrrolidin-3-yl)picolinamide] | < 10 nM
COc1c([C@H]2[C@H](C(=O)Nc3ccnc(C(=O)N4CCN(C)CC4)c3)O[C@@](C)(C(F)(F)F)[C@H]2C)ccc(F)c1F [Compound 8, (2R,3S,4S,5R)-3-(3,4-difluoro-2-methoxy-phenyl)-4,5-dimethyl-N-[2-(4-methylpiperazine-1-carbonyl)-4-pyridyl]-5-(trifluoromethyl)tetrahydrofuran-2-carboxamide] | < 10 nM
COc1c(C2CC3(COC3)OC2C(=O)Nc2ccnc(C(N)=O)c2)ccc(F)c1C (single isomer, unassigned) [Compound 24] | ≥ 1000 nM
COc1c([C@H]2[C@H](C(=O)Nc3ccnc(C(=O)N4C5CNCC4C5)c3)O[C@@](C)(C(F)(F)F)[C@H]2C)ccc(F)c1F [Compound 237, (2R,3S,4S,5R)-N-(2-(3,6-diazabicyclo[3.1.1]heptane-6-carbonyl)pyridin-4-yl)-3-(3,4-difluoro-2-methoxyphenyl)-4,5-dimethyl-5-(trifluoromethyl)tetrahydrofuran-2-carboxamide] | 10 to 100 nM
C[C@H](COc1c([C@H]2[C@H](C(=O)Nc3ccnc(C(N)=O)c3)O[C@@](C)(C(F)(F)F)[C@H]2C)ccc(F)c1F)N1CC2(COC2)C1 [Compound 42, 4-((2R,3S,4S,5R)-3-(2-((R)-2-(2-oxa-6-azaspiro[3.3]heptan-6-yl)propoxy)-3,4-difluorophenyl)-4,5-dimethyl-5-(trifluoromethyl)tetrahydrofuran-2-carboxamido)picolinamide] | 10 to 100 nM
COCc1c(F)ccc([C@H]2[C@H](C(=O)Nc3ccnc(C(N)=O)c3)O[C@@](C)(C(F)(F)F)[C@H]2C)c1OC (single isomer, unassigned) [Compound 140] | < 10 nM
C[C@]1(C(F)(F)F)C[C@@H](c2ccc(F)c(F)c2OCCO)[C@H](C(=O)Nc2ccnc(C(N)=O)c2)O1 (relative stereo) [Compound 33, rel-4-((2R,3S,5R)-3-(3,4-difluoro-2-(2-hydroxyethoxy)phenyl)-5-methyl-5-(trifluoromethyl)tetrahydrofuran-2-carboxamido)picolinamide] | 10 to 100 nM
C[C@H]1[C@@H](c2ccc(F)c(F)c2OCC2(F)CN(C)C2)[C@H](C(=O)Nc2ccnc(C(N)=O)c2)O[C@@]1(C)C(F)(F)F [Compound 105, 4-((2R,3S,4S,5R)-3-(3,4-difluoro-2-((3-fluoro-1-methylazetidin-3-yl)methoxy)phenyl)-4,5-dimethyl-5-(trifluoromethyl)tetrahydrofuran-2-carboxamido)picolinamide] | 10 to 100 nM
C[C@H]1[C@@H](c2ccc(F)c(F)c2OCCc2cn(C)cn2)[C@H](C(=O)Nc2ccnc(C(N)=O)c2)O[C@@]1(C)C(F)(F)F [Compound 85, 4-((2R,3S,4S,5R)-3-(3,4-difluoro-2-(2-(1-methyl-1H-imidazol-4-yl)ethoxy)phenyl)-4,5-dimethyl-5-(trifluoromethyl)tetrahydrofuran-2-carboxamido) picolinamide] | < 10 nM
COc1c([C@H]2[C@H](C(=O)Nc3ccnc(C(=O)N4CCN(C)C[C@H]4C)c3)O[C@@](C)(C(F)(F)F)[C@H]2C)ccc(F)c1F [Compound 274, (2R,3S,4S,5R)-3-(3,4-difluoro-2-methoxyphenyl)-N-(2-((R)-2,4-dimethylpiperazine-1-carbonyl)pyridin-4-yl)-4,5-dimethyl-5-(trifluoromethyl)tetrahydrofuran-2-carboxamide] | < 10 nM
